Data on three molecules can be found in patent US9987293B2, “Method for treating chronic lymphocytic leukemia” (BIONOMICS LIMITED, priority 2014, dated 2018).

Where only a bound is given, the exact number is not on record here.

One data set concerns CLL cells on L4.5 stroma. Put plainly: Apoptosis of CLL cells co-incubated on CD154+ L4.5 stroma. It counts as cell-based, human. As to conditions: for sensitivity of stroma co-incubated CLL cells: co-incubation on stroma for 24 h. The procedure:
(§1) CLL cells were obtained from consented patients at the Norris Cotton Cancer Center. Cells were purified by centrifugation in Ficoll-Paque PLUS from 10 ml, of blood. Lymphocytes were plated in RPMI 1640 plus 10% serum at 1×10^6 cells/mL after three washes in PBS+2 mmol/L EDTA. Cells were either incubated immediately with reagents or after 24 h incubation with confluent layers of CD154+ stromal cells (L 4.5) at a ratio of 5:1.
(§2) Cells were incubated for 10 min with 2 μg/mL. Hoechst 33342 at 37° C. and visualized with a fluorescent microscope. At least 200 cells were scored for each sample. The percentage of cells with condensed chromatin was recorded.
The experiments above have shown that CLL cells are usually very sensitive to EX2. However, these cells were isolated from peripheral blood, and the real problem to curing CLL is to be able to kill cells that reside in the lymph node or […] marrow niche. To mimic this niche, we have used L4.5 cells that express CD154. […] However, when ABT-199 and EX2 were combined, marked apoptosis was again observed. For example, 100 nM ABT-199 alone induced about 10% apoptosis, whereas when combined with 1 μM EX2, >60% apoptosis was observed within 6 h. The combination of 1 μM EX2 and 1 μM ABT-199 induced about 80% apoptosis. This patient's cells appeared to be more resistant than those summarized in FIG. 2 which may therefore understate the impact of this combination. In cells from another patient that were more sensitive to EX2 alone we observed greater sensitization to ABT-199; these cells were not tested on stroma.

Data set [1] has as its system normal peripheral lymphocytes. Put plainly: Toxicity to normal peripheral lymphocytes (PARP cleavage, chromatin condensation, pJNK, Noxa). It counts as cell-based, human. The procedure:
as §2
(§3) Cells were lysed in urea sample buffer [4 mol/L urea, 10% β-mercaptoethanol, 6% SDS, […] (pH 6.8), 0.01% bromphenol blue, and protease/phosphatase inhibitor cocktail] and boiled for 5 min. Proteins were subsequently separated by SDS-PAGE (10 or 15%) and transferred to polyvinylidene difluoride membrane (Millipore). Membranes were blocked with 5% nonfat milk in TBS and 0.05% Tween 20, and were probed with the appropriate primary antibody overnight. Subsequently, membranes were washed in […] and 0.05% Tween 20, and then incubated with secondary antibody conjugated to horseradish peroxidase. Proteins were visualized by enhanced chemiluminescence (Amersham). Actin was used as a loading control in Western blots.
To test the potential toxicity of EX2, normal peripheral lymphocytes were isolated from a healthy volunteer and incubated with EX2 alone or in combination with ABT-199.

Data set [2] concerns CLL cells. The data set can be described thus: Immunoblot of PARP cleavage, pJNK and Noxa in CLL cells. It counts as cell-based, human. As for the experimental part: as §1, §3
(§4) To determine whether EX2 induces apoptosis, freshly isolated CLL cells were incubated in media containing 0-1 μM EX2. Chromatin condensation was scored as a classic marker of apoptosis. Apoptosis was observed following incubation of cells with 10-100 nM EX2 and this also correlated with the cleavage of PARP (FIG. 1). Protein lysates were also assessed for both pJNK and NOXA, both of which were increased by the same concentrations of EX2.

For data set [3], the system named is CLL cells. The data set can be described thus: Chromatin condensation (Hoechst 33342) apoptosis in freshly isolated CLL cells. It counts as cell-based, human. The note with it: 6 h. The procedure:
as §1, §2, §4

The subject of another data set is Jeko-1 cells. The data set can be described thus: Kinetics of apoptosis in Jeko-1 cells (Western blot). As to conditions: Jeko-1 cells (FIG. 7). It counts as cell-based. As for the experimental part: as §3
It was noted that in many of these experiments, PARP cleavage was incomplete at 6 h. To determine whether greater apoptosis occurred at later time points, we incubated cells for up to 24 h with EX2 (FIG. 6).
In general terms: In western blotting, separated proteins are transferred to a membrane and probed.

As to `CC1(C)CCC(CN2CCN(c3ccc(C(=O)NS(=O)(=O)c4ccc(NCC5CCOCC5)c([N+](=O)[O-])c4)c(Oc4cnc5[nH]ccc5c4)c3)CC2)=C(c2ccc(Cl)cc2)C1` [ABT-199, reference compound], the “apoptosis, 100 nM alone” value in the data set on CLL cells on L4.5 stroma (CLL cells on stroma, 100 nM ABT-199 alone) is reported as “about 10%”. Also, the “sensitivity of stroma co-incubated CLL cells” value with CLL cells on L4.5 stroma was “marked resistance”. For the same molecule, the “PARP cleavage in normal lymphocytes” value in data set [1] (healthy volunteer cells, ABT-199 alone) is recorded as “slight PARP cleavage”. Also, in data set [1] (healthy volunteer cells, ABT-199 with or without EX2), the “chromatin condensation in normal lymphocytes” value was “no chromatin condensation was observed”.

With `CCc1cnn2c(NCc3ccc[n+]([O-])c3)cc(N3CCCC[C@H]3CCO)nc12` [Dinaciclib, reference compound], the “apoptosis in normal leukocytes” value in data set [1] (healthy volunteer cells, dinaciclib alone) is recorded as “induced some apoptosis”.

`COc1cc(C(=O)c2c(C)oc3c(OP(=O)([O-])[O-])c(OC)ccc23)cc(OC)c1OC.[Na+].[Na+]` [EX2, Disodium 6-methoxy-2-methyl-3-(3,4,5-trimethoxybenzoyl)benzofuran-7-yl phosphate]: the “time to activation of JNK” value with CLL cells [2] (CLL cells) was “less than one”. Further, the “PARP cleavage over time” value with CLL cells [2] (CLL cells incubated up to 24 h (FIG. 6), by 24 h) was “almost total cleavage of PARP”. Besides, the “PARP cleavage in presence of JNK inhibitor VIII” value in the data set on CLL cells [2] (CLL cells, 0-1 μM EX2 with JNK inhibitor VIII) is “completely prevented”. Moreover, the “lowest concentration at which apoptosis began to appear” value in the data set on CLL cells [2] (CLL cells, 6 h, FIG. 2A, pJNK and Noxa correlated) is recorded as 5 nM. For the same molecule, the “JNK activation and PARP cleavage after 1 h pulse treatment” value in the data set with CLL cells [2] (CLL cells, five hours after removing EX2, versus continuous incubation) was “still observed albeit slightly less”. Moreover, the “pJNK and NOXA levels” value in the data set with CLL cells [2] (protein lysates of CLL cells, same concentrations (10-100 nM)) is reported as “increased”. Further, the “concentration at which apoptosis (chromatin condensation) was observed” value with CLL cells [3] (freshly isolated CLL cells, 0-1 μM, correlated with PARP cleavage) was 10 to 100 nM. In addition, the “relative potency as inducer of apoptosis” value with CLL cells [3] (versus vinblastine and combretastatin A4, chromatin condensation and PARP cleavage) is on record as “more potent inducer of apoptosis”. Moreover, in the data set with Jeko-1 cells, the “time by which apoptosis was complete” value was “up to 24 h”. In addition, the “apoptosis, single agent at 1 μM” value in the data set with CLL cells on L4.5 stroma (CLL cells co-cultured on L4.5 stroma 24 h, 1 μM) is “no apoptosis observed”. Also, in the data set on CLL cells on L4.5 stroma (CLL cells on stroma), the “apoptosis, combination of 1 μM EX2 and 1 μM ABT-199” value is reported as “about 80%”. Also, the “apoptosis, 1 μM EX2 combined with 100 nM ABT-199” value with CLL cells on L4.5 stroma (CLL cells on stroma, within 6 h) is more than 60%. In the data set with CLL cells on L4.5 stroma, the “sensitivity of stroma co-incubated CLL cells” value is given as “markedly resistant”. In addition, the “effect of EX2 on ABT-199-induced PARP cleavage in normal lymphocytes” value in data set [1] (EX2 combined with ABT-199) is recorded as “not increased”. Also, in data set [1] (EX2 combined with dinaciclib), the “effect of EX2 on dinaciclib-induced apoptosis in normal leukocytes” value is on record as “not increased”. In data set [1] (healthy volunteer cells), the “Noxa induction in normal lymphocytes” value is recorded as “no Noxa was induced” and the “pJNK in normal lymphocytes” value is given as “activated”. Also, the “PARP cleavage or chromatin condensation in normal lymphocytes” value in data set [1] (healthy volunteer cells, single agent, 6 h) was “no significant PARP cleavage or chromatin condensation”.
